Patent US20240270821A1, “GIP/GLP1/GCG TRI-RECEPTOR AGONISTS AND USES THEREOF” (priority 2023, published 2024)
Read-outs that look alike come from different tables or passages of the source. Starred links: 1 amine or outer side, 2 acyl side, 3 side chain; linkers in the order of their positions; H or OH if unused. Non-standard residues stand in square brackets, D forms with d. Groups on a side chain read outwards from the residue. *: point of attachment. C18 diacid = O=C(O)CCCCCCCCCCCCCCCCC(=O)*; αMePhe(2-F) = C[C@](N)(Cc1ccccc1F)C(=O)O; γGlu = O=C(O)[C@H](CCC(=O)[*:2])N[*:1]; αMe4Pal = C[C@](N)(Cc1ccncc1)C(=O)O; αMeY = C[C@](N)(Cc1ccc(O)cc1)C(=O)O; 4Pal = N[C@@H](Cc1ccncc1)C(=O)O; αMeL = CC(C)C[C@](C)(N)C(=O)O; Orn = NCCC[C@H](N)C(=O)O; AEEA = NCCOCCOCC(=O)O; Aib = CC(C)(N)C(=O)O

What was measured:
Type in all cases: cell-based
[1] = molecular target: human GcgR (Homo sapiens, UniProt P47871); assay: Functional cAMP activity in the presence of 1% HSA; details: read-out: cAMP Rel EC50, hGcgR
[2] = molecular target: T1, hGIPR (Homo sapiens, UniProt P48546); assay: Functional cAMP activity in the presence of 1% HSA; details: read-out: cAMP Rel EC50, hGIPR
T1 sequence (P48546 22-466): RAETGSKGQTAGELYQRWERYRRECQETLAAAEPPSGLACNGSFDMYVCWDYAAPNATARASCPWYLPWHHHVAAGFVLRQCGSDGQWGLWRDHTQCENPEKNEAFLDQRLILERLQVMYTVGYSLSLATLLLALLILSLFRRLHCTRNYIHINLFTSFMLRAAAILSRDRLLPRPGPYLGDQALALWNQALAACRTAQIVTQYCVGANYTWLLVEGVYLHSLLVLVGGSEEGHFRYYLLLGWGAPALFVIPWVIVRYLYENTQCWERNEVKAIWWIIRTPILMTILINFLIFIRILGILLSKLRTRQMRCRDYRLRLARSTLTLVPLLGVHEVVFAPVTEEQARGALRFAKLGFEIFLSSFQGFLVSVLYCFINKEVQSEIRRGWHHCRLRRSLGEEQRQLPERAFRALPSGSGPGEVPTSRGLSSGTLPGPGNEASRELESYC

[3] = molecular target: hGcgR (Homo sapiens, UniProt P47871); assay: Functional cAMP activation in the presence of 0.1% casein (no HSA); details: read-out: Relative cAMP EC50, hGcgR;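 further: intracellular cAMP rise after 30 min at 37 °C, read by HTRF against a cAMP standard curve, scaled from buffer only (0%) to maximal control ligand response (100%)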
[4] = molecular target: T2, hGLP-1R (Homo sapiens, UniProt P43220); assay: Functional cAMP activity in the presence of 1% HSA; details: read-out: cAMP Rel EC50, hGLP-1R
[5] = molecular target: T1, hGIPR; assay: Functional cAMP activation in the presence of 0.1% casein (no HSA); details: read-out: Relative cAMP EC50, hGIPR;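 on Relative cAMP EC50, hGIPR: intracellular cAMP rise after 30 min at 37 °C read by HTRF against a standard curve, scaled between buffer alone (0%) and top control ligand concentration (100%), four-parameter fit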;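 on Relative cAMP EC50, hGLP-1R: intracellular cAMP rise after 30 min at 37 °C read by HTRF, normalized between buffer only (0%) and maximal control ligand (100%), four-parameter variable-slope fit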
[6] = molecular target: T2, hGLP-1R; assay: as above; details: read-out: Relative cAMP EC50, hGLP-1R
[7] = HEK-293 clonal cell line, 1% HSA, geometric mean of relative EC50
[8] = in the presence of 0.1% casein (no HSA), geometric mean of relative EC50

hGcgR, sequence (P47871 26-477): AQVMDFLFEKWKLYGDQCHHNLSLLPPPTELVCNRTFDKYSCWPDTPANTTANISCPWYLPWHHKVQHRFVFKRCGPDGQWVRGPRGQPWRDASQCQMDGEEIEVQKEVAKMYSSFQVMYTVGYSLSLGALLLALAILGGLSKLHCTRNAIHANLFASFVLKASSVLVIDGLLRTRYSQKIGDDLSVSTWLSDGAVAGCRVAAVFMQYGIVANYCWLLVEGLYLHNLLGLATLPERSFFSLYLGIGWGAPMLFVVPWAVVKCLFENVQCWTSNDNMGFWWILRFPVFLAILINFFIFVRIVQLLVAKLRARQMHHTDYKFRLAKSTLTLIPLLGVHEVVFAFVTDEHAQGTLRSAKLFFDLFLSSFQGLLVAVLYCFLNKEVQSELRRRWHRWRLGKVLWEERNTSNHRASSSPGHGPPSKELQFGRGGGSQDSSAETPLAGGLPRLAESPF
human GcgR, sequence (P47871 26-477): as above
T2 sequence (P43220 24-463): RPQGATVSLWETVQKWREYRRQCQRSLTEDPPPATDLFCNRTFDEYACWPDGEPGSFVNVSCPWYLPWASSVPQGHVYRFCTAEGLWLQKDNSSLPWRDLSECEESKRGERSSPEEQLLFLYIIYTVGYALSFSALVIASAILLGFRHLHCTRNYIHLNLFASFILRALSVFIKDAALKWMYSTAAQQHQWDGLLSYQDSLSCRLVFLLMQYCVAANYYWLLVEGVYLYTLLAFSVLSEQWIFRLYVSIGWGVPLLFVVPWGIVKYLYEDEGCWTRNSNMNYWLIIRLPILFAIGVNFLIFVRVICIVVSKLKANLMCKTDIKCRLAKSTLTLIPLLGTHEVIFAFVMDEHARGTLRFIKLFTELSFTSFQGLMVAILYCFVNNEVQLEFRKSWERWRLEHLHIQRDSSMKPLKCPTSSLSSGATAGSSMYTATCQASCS

Substance | EC50 [1] | EC50 [2] | EC50 [3] | EC50 [4] | EC50 [5] | EC50 [6] | EC50 [1, 7] | EC50 [2, 7] | EC50 [3, 8] | EC50 [4, 7] | EC50 [5, 8] | EC50 [6, 8]
H-Y[Aib]QGT[αMePhe(2-F)]TSD[4Pal]SILLD[Orn]K([γGlu-γGlu-C18 diacid])AQ[Aib]AFIE[αMeY]LEEGGPSSGAPPPSGTGE-NH2 [Example 665] | 285 nM | 2.1 nM | 2.94 nM | 32.8 nM | 0.0223 nM | 0.284 nM |  |  |  |  |  | 
H-Y[Aib]QGT[αMePhe(2-F)]TSD[4Pal]SILLD[Orn]K([γGlu-γGlu-C18 diacid])AQ[Aib][Orn]FIEYLQEGGPSSGAPPPSGTEE-NH2 [Example 582] | 1060 nM | 10.8 nM | 10.5 nM | 35.5 nM | 0.103 nM | 0.298 nM |  |  |  |  |  | 
H-Y[Aib]QGT[αMePhe(2-F)]TSD[4Pal]SILLD[Orn]K([γGlu-γGlu-C18 diacid])AQ[Aib][Orn]FIE[αMeY]LEEGGPSSGAPPPSGTGE-NH2 [Example 674] | 168 nM | 2.54 nM | 2.09 nM | 17.3 nM | 0.0264 nM | 0.21 nM |  |  |  |  |  | 
H-Y[Aib]QGT[αMePhe(2-F)]TSD[4Pal]SILLD[Orn]K([γGlu-γGlu-C18 diacid])AQ[αMe4Pal][Orn]FI[dE]YLIEGGPSSGEPPPSGTEE-NH2 [Example 584] | 497 nM | 5.5 nM | 5.29 nM | 137 nM | 0.0461 nM | 1 nM |  |  |  |  |  | 
H-Y[Aib]QGT[αMePhe(2-F)]TSD[4Pal]SI[αMeL]LDKK([γGlu-γGlu-C18 diacid])AQ[Aib]AFIEYLEEGGPSSGAPPPSGEGE-NH2 [Example 623] | 832 nM | 1.48 nM | 7.94 nM | 62.2 nM | 0.0224 nM | 0.907 nM |  |  |  |  |  | 
H-Y[Aib]QGT[αMePhe(2-F)]TSD[4Pal]SI[αMeL]LDKK([γGlu-γGlu-C18 diacid])AQ[Aib]AFIEYLEEGGPSSGAPPPSGTGE-NH2 [Example 622] | 641 nM | 1.19 nM | 7.7 nM | 52.3 nM | 0.0148 nM | 0.776 nM |  |  |  |  |  | 
H-Y[Aib]QGT[αMePhe(2-F)]TSD[4Pal]SI[αMeL]LDKK([γGlu-γGlu-C18 diacid])AQ[Aib]AFIEYLQEGGPSSGEPPPSGSEE-NH2 [Example 634] |  |  |  |  |  |  | 979 nM | 1.48 nM | 6.49 nM | 34.9 nM | 0.0195 nM | 0.403 nM
H-Y[Aib]QGT[αMePhe(2-F)]TSD[4Pal]SI[αMeL]LDKK([γGlu-γGlu-C18 diacid])AQ[Aib][Orn]FIEYLEEGGPSSGEPPPSGSEE-NH2 [Example 635] |  |  |  |  |  |  | 753 nM | 2.7 nM | 7.09 nM | 53.9 nM | 0.0405 nM | 0.625 nM
H-Y[Aib]QGT[αMePhe(2-F)]TSD[4Pal]SI[αMeL]LDKK([γGlu-γGlu-C18 diacid])AQ[Aib][Orn]FIEYLSEGGPSSGEPPPSGSEE-NH2 [Example 637] |  |  |  |  |  |  | 968 nM | 7.23 nM | 11.7 nM | 76.2 nM | 0.108 nM | 1.08 nM
H-Y[Aib]QGT[αMePhe(2-F)]TSD[4Pal]SI[αMeL]LDKK([γGlu-γGlu-C18 diacid])AQ[Aib][Orn]FIEYLTEGGPSSGEPPPSGSEE-NH2 [Example 638] |  |  |  |  |  |  | 1090 nM | 2.39 nM | 14 nM | 36 nM | 0.0354 nM | 0.4 nM
H-Y[Aib]QGT[αMePhe(2-F)]TSD[4Pal]SI[αMeL]LD[Orn]K([AEEA-γGlu-C18 diacid])AQ[αMe4Pal]EFI[dE][αMeY]LAEGGPSSGAPPPSGS-NH2 [Example 642] | 519 nM | 0.791 nM | 3.49 nM | 67.1 nM | 0.00796 nM | 0.474 nM |  |  |  |  |  | 

The next lines start with the values.

EC50 [1] | EC50 [2] | EC50 [3] | EC50 [4] | EC50 [5] | EC50 [6] | EC50 [1, 7] | EC50 [2, 7] | EC50 [3, 8] | EC50 [4, 7] | EC50 [5, 8] | EC50 [6, 8] | Substance
1250 nM | 12.3 nM | 6.32 nM | 71 nM | 0.0692 nM | 0.542 nM |  |  |  |  |  |  | H-Y[Aib]QGT[αMePhe(2-F)]TSD[4Pal]SILLD[Orn]K([γGlu-γGlu-C18 diacid])AQ[Aib]AFIEYLQEGGPSSGEPPPSGTEE-NH2 [Example 583]
657 nM | 1.81 nM | 8.53 nM | 72.1 nM | 0.0291 nM | 1.16 nM |  |  |  |  |  |  | H-Y[Aib]QGT[αMePhe(2-F)]TSD[4Pal]SI[αMeL]LDKK([γGlu-γGlu-C18 diacid])AQ[Aib]AFIEYLEEGGPSSGEPPPSGEGE-NH2 [Example 625]
 |  |  |  |  |  | 872 nM | 2.96 nM | 8.07 nM | 74.5 nM | 0.0233 nM | 0.762 nM | H-Y[Aib]QGT[αMePhe(2-F)]TSD[4Pal]SI[αMeL]LDKK([γGlu-γGlu-C18 diacid])AQ[Aib]AFIEYLEEGGPSSGEPPPSGSEE-NH2 [Example 630]
808 nM | 1.17 nM | 8.42 nM | 63.4 nM | 0.0222 nM | 0.95 nM |  |  |  |  |  |  | H-Y[Aib]QGT[αMePhe(2-F)]TSD[4Pal]SI[αMeL]LDKK([γGlu-γGlu-C18 diacid])AQ[Aib]AFIEYLEEGGPSSGEPPPSGTGE-NH2 [Example 624]
 |  |  |  |  |  | 1600 nM | 5.48 nM | 13.5 nM | 88.2 nM | 0.068 nM | 0.951 nM | H-Y[Aib]QGT[αMePhe(2-F)]TSD[4Pal]SI[αMeL]LDKK([γGlu-γGlu-C18 diacid])AQ[Aib]AFIEYLSEGGPSSGEPPPSGSEE-NH2 [Example 632]
 |  |  |  |  |  | 1500 nM | 1.63 nM | 10.2 nM | 41.2 nM | 0.0186 nM | 0.421 nM | H-Y[Aib]QGT[αMePhe(2-F)]TSD[4Pal]SI[αMeL]LDKK([γGlu-γGlu-C18 diacid])AQ[Aib]AFIEYLTEGGPSSGEPPPSGSEE-NH2 [Example 633]
 |  |  |  |  |  | 574 nM | 3.1 nM | 16.2 nM | 31.4 nM | 0.0814 nM | 0.649 nM | H-Y[Aib]QGT[αMePhe(2-F)]TSD[4Pal]SI[αMeL]LDKK([γGlu-γGlu-C18 diacid])AQ[Aib][Orn]FIEYLAEGGPSSGEPPPEGSEE-NH2 [Example 650]
 |  |  |  |  |  | 935 nM | 4.3 nM | 9.28 nM | 36.6 nM | 0.054 nM | 0.504 nM | H-Y[Aib]QGT[αMePhe(2-F)]TSD[4Pal]SI[αMeL]LDKK([γGlu-γGlu-C18 diacid])AQ[Aib][Orn]FIEYLAEGGPSSGEPPPSGSEE-NH2 [Example 636]
 |  |  |  |  |  | 542 nM | 1.38 nM | 7.29 nM | 25 nM | 0.0303 nM | 0.426 nM | H-Y[Aib]QGT[αMePhe(2-F)]TSD[4Pal]SI[αMeL]LDKK([γGlu-γGlu-C18 diacid])AQ[Aib][Orn]FIEYLQEGGPSSGEPPPEGSEE-NH2 [Example 653]
 |  |  |  |  |  | 639 nM | 6.3 nM | 10.7 nM | 53.9 nM | 0.112 nM | 1.02 nM | H-Y[Aib]QGT[αMePhe(2-F)]TSD[4Pal]SI[αMeL]LDKK([γGlu-γGlu-C18 diacid])AQ[Aib][Orn]FIEYLSEGGPSSGEPPPEGSEE-NH2 [Example 651]
 |  |  |  |  |  | 764 nM | 1.92 nM | 15.3 nM | 26.8 nM | 0.0342 nM | 0.426 nM | H-Y[Aib]QGT[αMePhe(2-F)]TSD[4Pal]SI[αMeL]LDKK([γGlu-γGlu-C18 diacid])AQ[Aib][Orn]FIEYLTEGGPSSGEPPPEGSEE-NH2 [Example 652]
716 nM | 1.44 nM | 5.26 nM | 18.7 nM | 0.0127 nM | 0.173 nM |  |  |  |  |  |  | H-Y[Aib]QGT[αMePhe(2-F)]TSD[4Pal]SI[αMeL]LD[Orn]K([AEEA-γGlu-C18 diacid])AQ[Aib][Orn]FIEYLIEGGPSSGEPPPEEG-NH2 [Example 477]
523 nM | 1.25 nM | 2.31 nM | 11.8 nM | 0.0121 nM | 0.172 nM |  |  |  |  |  |  | H-Y[Aib]QGT[αMePhe(2-F)]TSD[4Pal]SI[αMeL]LD[Orn]K([AEEA-γGlu-C18 diacid])AQ[Aib][Orn]FIEYLIEGGPSSGEPPPSEG-NH2 [Example 489]
333 nM | 1.08 nM | 1.26 nM | 19.9 nM | 0.014 nM | 0.211 nM |  |  |  |  |  |  | H-Y[Aib]QGT[αMePhe(2-F)]TSD[4Pal]SI[αMeL]LD[Orn]K([AEEA-γGlu-C18 diacid])AQ[Aib][Orn]FIEYLLEGGPSSGEPPPEEG-NH2 [Example 494]
